This passage reports Ki results from BindingDB's records for PubMed 9463480 (F. Hoffmann-La Roche, 1998).

This assay concerns the target Metabotropic glutamate receptor 2 (Homo sapiens, UniProt Q14416).

Metabotropic glutamate receptor 2, sequence (Q14416 whole entry): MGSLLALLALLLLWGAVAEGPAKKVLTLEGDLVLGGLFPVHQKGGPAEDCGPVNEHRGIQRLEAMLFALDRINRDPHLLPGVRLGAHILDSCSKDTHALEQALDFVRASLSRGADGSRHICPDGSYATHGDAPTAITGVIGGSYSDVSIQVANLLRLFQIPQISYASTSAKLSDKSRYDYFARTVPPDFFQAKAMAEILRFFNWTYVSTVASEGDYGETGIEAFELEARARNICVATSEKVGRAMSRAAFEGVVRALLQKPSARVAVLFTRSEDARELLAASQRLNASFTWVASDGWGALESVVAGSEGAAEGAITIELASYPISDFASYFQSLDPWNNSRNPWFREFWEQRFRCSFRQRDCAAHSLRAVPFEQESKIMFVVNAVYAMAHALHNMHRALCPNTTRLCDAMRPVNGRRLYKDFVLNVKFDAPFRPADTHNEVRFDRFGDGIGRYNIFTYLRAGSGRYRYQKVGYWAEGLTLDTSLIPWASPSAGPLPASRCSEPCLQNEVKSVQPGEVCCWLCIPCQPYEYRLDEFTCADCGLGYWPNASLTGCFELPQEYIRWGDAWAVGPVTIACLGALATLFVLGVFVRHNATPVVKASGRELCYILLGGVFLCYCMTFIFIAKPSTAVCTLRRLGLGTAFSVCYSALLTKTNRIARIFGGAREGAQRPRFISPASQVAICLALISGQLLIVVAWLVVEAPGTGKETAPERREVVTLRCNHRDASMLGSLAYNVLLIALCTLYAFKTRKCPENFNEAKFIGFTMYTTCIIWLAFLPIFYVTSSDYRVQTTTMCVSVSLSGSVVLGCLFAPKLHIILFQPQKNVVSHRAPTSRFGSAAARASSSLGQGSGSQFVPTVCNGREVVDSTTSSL

As usually defined, the Ki is a measure of affinity in units of concentration, obtained from inhibition or displacement. The low end stands for tighter binding, the high end for weaker binding. `N[C@@H](CCP(=O)(O)O)C(=O)O` showed a Ki above 10000 nM. Next, `C[C@@](N)(C(=O)O)c1ccc(C(=O)O)cc1` (racemic): above 10000 nM; `N[C@@]1(C(=O)O)CC[C@H](C(=O)O)C1` [1S, 3R-ACPD]: 2000 nM. Then `N[C@@H](Cn1oc(=O)[nH]c1=O)C(=O)O` [2-amino-3-(3,5-dioxo[1,2,4]oxadiazolidin-2-yl)propionic acid], with above 10000 nM. Then `N[C@H](CP(=O)(O)O)C(=O)O` [CAS_23052-80-4], with above 10000 nM; and `NC(Cn1cnc2c(=O)[nH]c(=O)[nH]c21)(C(=O)O)C1CC1C(=O)O` (centres undefined) [CAS_5311260], with 10 nM; and `N[C@H](C(=O)O)C1[C@@H](C(=O)O)[C@@H]1C(=O)O` (some centres undefined) [DCG-IV], with 60 nM.

Molecule `N[C@H](C(=O)O)[C@H]1C[C@H]1C(=O)O` [L-CCG-IV] returned an inhibitory constant (Ki) of 70 nM. Next, `C[C@](N)(C(=O)O)C1C[C@@H]1C(=O)O` (some centres undefined) [MCCG-I]: above 10000 nM.
